According to patent US6365607B1, “Anticachectic composition” (Takeda Chemical Industries, Ltd., priority 1996, dated 2002):
Where two headings read alike, the source gives them in different places.

How the values were obtained:
[1] = system: fat cells in rat epididymis adipose tissue; assay: Antilipolytic activity: glycerol released from IL-1β-treated rat fat cells; format: cell-based; settings: read-out: antilipolytic concentration IC50
Description: In accordance with the method of Green et al. [Endocrinology, 134, 2581-2588 (1994)], the antilipolytic activity of the compound of the present invention was evaluated by quantitating the glycerol released from fat cells in rat epididymis adipose tissue.
Thus, the rat epididymis adipose tissue was isolated, cut into pieces with a pair of scissors, and digested into fat cells by agitating in collagenase-containing phosphate buffer for 1 hour. To a culture solution containing fat cells was added 10 ng/ml of IL-1β (manufactured by Pharmingen, PM-19101V). Then, in treatment groups, solutions of compound (2) in N,N-dimethylformamide at graded concentrations were respectively added. After 24 hours, the supernatant was recovered and the glycerol therein was quantitated with an assay kit (manufactured by Sigma, 337-A). The amount of released glycerol in each group treated with compound (2) relative to that in the control group was determined to find the inhibition rate and the 50% inhibition concentration IC50 of the compound was calculated. The antilipolytic concentration IC50 value of compound (2) was 4 nM.
The antilipolytic activity of indomethacin was evaluated by the same method as in Test Example 1. The antilipolytic concentration IC50 value of indomethacin was not less than 10 mM.

[2] = system: tumor-bearing mice (mouse colon cancer cell line Colon 26); assay: Weight loss inhibitory activity in tumor-bearing mice (Colon 26 cachexia model); format: in vivo; settings: CDF1 mice
Description: Using the mouse colon cancer cell line Colon 26 (Tanaka et al., Cancer Research, 50, 4528-4532 (1990)), which is a system known to be high in the reproducibility of cancer cachectic symptoms, the inhibitory effect of the compound of the present invention on lipolysis and body weight loss was evaluated.
Thus, 1×10^6 Colon 26 cells were transplanted sub-dermaly in 4-week-old CDF1 mice. On day 14 after transplantation, the mice were divided into groups according to tumor size. A 5% (w/v) gum arabic suspension containing compound (2) was administered orally in a dose of 1.0 mg/kg to one group of mice and, as a control, a 5% (w/v) gum arabic suspension was similarly administered to another group, once daily for 7 days in each case. An additional group of mice was not transplanted with Colon 26 cells (normal group). On days 14, 18 and 21 after transplantation, the mice were weighed. On day 22 after transplantation, each mouse was autopsied and the epididymis adipose tissue was isolated and weighed. Changes in mouse body weight and adipose tissue weight are shown in Table 1 and Table 2, respectively.

| Structure (SMILES) | IC50 ([1]; inhibition of glycerol release, 10 ng/ml IL-1β, 24 hours) | body weight of tumor-bearing mice, 21st Day after transplantation ([2]; 1.0 mg/kg orally once daily for 7 days from day 14) | body weight of tumor-bearing mice, 18th Day after transplantation ([2]; 1.0 mg/kg orally once daily from day 14) | body weight of tumor-bearing mice, 14th Day after transplantation ([2]; day 14 (grouping, start of dosing), 1.0 mg/kg orally once daily for 7 days) | IC50 ([1]; same method as Test Example 1 (glycerol release, IL-1β, 24 hours)) |
| --- | --- | --- | --- | --- | --- |
| Cc1oc(-c2ccccc2)nc1C(O)COc1ccc(CC2SC(=O)NC2=O)cc1 (centres unmarked) [compound (2), 5-[4-[2-hydroxy-2-(5-methyl-2-phenyl-4-oxazolyl)ethoxy]benzyl]-2,4-thiazolidinedione] | 0.004 µM | 25.6 g | 26.3 g | 26.3 g | – |
| COc1ccc2c(c1)c(CC(=O)O)c(C)n2C(=O)c1ccc(Cl)cc1 [indomethacin, reference compound] | – | – | – | – | ≥ 10000 µM |
